Experimental data published in patent US10842779B2, “Heterocyclic compounds and their use in preventing or treating bacterial infections” (priority 2015, dated 2020).
Read-outs that look alike come from different tables or passages of the source.

How the values were obtained:
Assay in all cases: MIC of compounds alone, broth microdilution
Type in all cases: cell-based
C. freundii = conditions: Citrobacter freundii
Description: (§1) Method 2: MIC of Compounds and Synergy with Ceftazidime Against Bacterial Isolates (Table 2 and 3)
(§2) Compounds of the present invention were assessed against genotyped bacterial strains alone or in combination with the β-lactam ceftazidime. In the assays, MICs of said compounds, or of ceftazidime at fixed concentrations of said compounds were determined by the broth microdilution method according to the Clinical Laboratory Standards Institute (CLSI—M7-A7). Briefly, compounds alone according to the invention were prepared in DMSO and spotted (2 μL each) on sterile polystyrene plates (Corning, 3788). Compounds and ceftazidime dilutions were prepared in DMSO and spotted (1 μL each) on sterile polystyrene plates (Corning, 3788). Log phase bacterial suspensions were adjusted to a final density of 5×10^5 cfu/mL in cation-adjusted Mueller-Hinton broth (Beckton-Dickinson) and added to each well (98 μL). Microplates were incubated for 16-20 h at 35° C. in ambient air. The MIC of the compounds was defined as the lowest concentration of said compounds that prevented bacterial growth as read by visual inspection. The MIC of ceftazidime at each compound concentration was defined as the lowest concentration of ceftazidime that prevented bacterial growth as read by visual inspection.

C. murliniae = tested on: C. murliniae
Description: as §1, §2

E. aerogenes = conditions: Klebsiella aerogenes
Description: as §1, §2

E. cloacae = conditions: Enterobacter cloacae
Description: as §1, §2

E. coli = conditions: Escherichia coli
Description: as §1, §2

K. oxytoca = conditions: Klebsiella oxytoca
Description: as §1, §2

K. pneumoniae = conditions: Klebsiella pneumoniae
Description: as §1, §2

M. morganii = conditions: Morganella morganii, MMO 200321, beta-lactamases TEM-1, CTX-M-15 OXA-1
Description: as §1, §2

P. aeruginosa = conditions: Pseudomonas aeruginosa
Description: as §1, §2

P. mirabilis = conditions: Proteus mirabilis, PMI UFR82, beta-lactamases CMY-2
Description: as §1, §2

S. marcescens = conditions: Serratia marcescens, SMA UFR30, beta-lactamases OXA-405
Description: as §1, §2

Work on `CC(C)(O/N=C(\C(=O)N[C@@H]1C(=O)N2C(C(=O)[O-])=C(C[n+]3ccccc3)CS[C@H]12)c1csc(N)n1)C(=O)O` [CAZ, ceftazidime, reference compound] yielded an MIC (C. freundii) of over 128 µg/mL, an MIC (C. freundii; alone, CFR UFR10, beta-lactamases OXA-48, read-out: MIC) of 64 µg/mL and an MIC (C. freundii; alone, CFR UFR11, beta-lactamases TEM-1 OXA-1 OXA-48, read-out: MIC) of 8 µg/mL. It also gave an MIC (C. murliniae) of over 128 µg/mL, an MIC (E. aerogenes) of 128 µg/mL and an MIC (E. cloacae; ECL 2185D, beta-lactamases OXA-163) of 128 µg/mL. It also gave an MIC (E. cloacae; ECL 190310, beta-lactamases AmpC) of over 128 µg/mL, an MIC (E. cloacae; ECL 190408, beta-lactamases TEM-1, CTX-M-15 OXA-1) of 128 µg/mL and an MIC (E. cloacae; ECL 200138, beta-lactamases AmpC) of over 128 µg/mL. For the same compound, the MIC (E. cloacae; ECL 200322, beta-lactamases TEM-1, CTX-M-15 OXA-1) was over 128 µg/mL, the MIC (E. cloacae; ECL 260033, beta-lactamases AmpC) was over 128 µg/mL and the MIC (E. cloacae; ECL 260253, beta-lactamases TEM-1 KPC-3) was over 128 µg/mL. It also gave an MIC (E. cloacae; ECL 260323, beta-lactamases AmpC) of over 128 µg/mL, an MIC (E. cloacae; ECL 260508, beta-lactamases TEM-1, CTX-M-15, read-out: MIC) of 64 µg/mL and an MIC (E. cloacae; ECL HAN, beta-lactamases OXA-35) of over 128 µg/mL. The MIC (E. cloacae; ECL NEM146383, beta-lactamases AmpC) was over 128 µg/mL, the MIC (E. cloacae; ECL P99, beta-lactamases AmpC) was 128 µg/mL and the MIC (E. cloacae; ECL UFR12, beta-lactamases CTX-M-9 OXA-48, read-out: MIC) was 2 µg/mL. For the same compound, the MIC (E. cloacae; ECL UFR13, beta-lactamases TEM-1, SHV-12, CTX-M-9 OXA-48) was over 128 µg/mL, the MIC (E. cloacae; ECL UFR14, beta-lactamases TEM-1, SHV-12, CTX-M-15 DHA-1 OXA-1 OXA-48) was over 128 µg/mL and the MIC (E. cloacae; ECL UFR38, beta-lactamases CTX-M-15 NDM-1) was over 128 µg/mL. For the same compound, the MIC (E. cloacae; ECL UFR51, beta-lactamases SHV-12 IMP-8) was over 128 µg/mL, the MIC (E. cloacae; ECL UFR60, beta-lactamases TEM-1, CTX-M-15 KPC-2) was over 128 µg/mL and the MIC (E. cloacae; ECL UFR70, beta-lactamases TEM-1, CTX-M-15 CMY-2 OXA-1) was over 128 µg/mL. The MIC (E. cloacae; ECL UFR84, beta-lactamases TEM-1 AmpC OXA-1) was over 128 µg/mL, the MIC (E. cloacae; ECL UFR85, beta-lactamases TEM-1, CTX-M-15 AmpC) was over 128 µg/mL and the MIC (E. coli; ECO 180070, beta-lactamases TEM-1, CTX-M-15, read-out: MIC) was 64 µg/mL. For the same compound, the MIC (E. coli; ECO 190314, beta-lactamases CTX-M-1, read-out: MIC) was 8 µg/mL, the MIC (E. coli; ECO 190317, beta-lactamases TEM-1, SHV-12, CTX-M-15 OXA-1) was 128 µg/mL and the MIC (E. coli; ECO 190457, beta-lactamases CTX-M-15 OXA-1, read-out: MIC) was 16 µg/mL. The MIC (E. coli; ECO 190549, beta-lactamases CTX-M-1, read-out: MIC) was 8 µg/mL, the MIC (E. coli; ECO 200159, beta-lactamases TEM-1, CTX-M-14, read-out: MIC) was 2 µg/mL and the MIC (E. coli; ECO 200259, beta-lactamases CTX-M-14, read-out: MIC) was 4 µg/mL. It also gave an MIC (E. coli; ECO 200344, beta-lactamases CTX-M-1, read-out: MIC) of 16 µg/mL, an MIC (E. coli; ECO 260096, beta-lactamases CTX-M-132) of 128 µg/mL and an MIC (E. coli; ECO 260304, beta-lactamases CTX-M-15, read-out: MIC) of 16 µg/mL. For the same compound, the MIC (E. coli; ECO 260508, beta-lactamases TEM-1, CTX-M-15 OXA-1) was 128 µg/mL, the MIC (E. coli; ECO UFR16, beta-lactamases TEM-1, CTX-M-15 OXA-1 OXA-48, read-out: MIC) was 64 µg/mL and the MIC (E. coli; ECO UFR17, beta-lactamases TEM-1, CTX-M-15 CMY-2 OXA-1 OXA-181) was over 128 µg/mL. For the same compound, the MIC (E. coli; ECO UFR18, beta-lactamases CTX-M-15 OXA-204) was over 128 µg/mL, the MIC (E. coli; ECO UFR19, beta-lactamases CTX-M-15 CMY-2 OXA-1 OXA-204) was 128 µg/mL and the MIC (E. coli; ECO UFR32, beta-lactamases TEM-1, VEB-1 OXA-10) was over 128 µg/mL. The MIC (E. coli; ECO UFR39, beta-lactamases CTX-M-15 NDM-1) was over 128 µg/mL, the MIC (E. coli; ECO UFR41, beta-lactamases TEM-1, CTX-M-15 CMY-2 OXA-1 NDM-4) was over 128 µg/mL and the MIC (E. coli; ECO UFR45, beta-lactamases TEM-1 CMY-4 OXA-1 OXA-48 VIM-1, read-out: MIC) was 2 µg/mL. For the same compound, the MIC (E. coli; ECO UFR52, beta-lactamases TEM-1, SHV-12 IMP-8) was over 128 µg/mL, the MIC (E. coli; ECO UFR61O, beta-lactamases TEM-1 KPC-2) was 128 µg/mL and the MIC (E. coli; ECO UFR62, beta-lactamases TEM-1, CTX-M-9 KPC-2, read-out: MIC) was 16 µg/mL. The MIC (E. coli; ECO UFR74, beta-lactamases SHV-1 DHA-1) was 128 µg/mL, the MIC (K. oxytoca) was 128 µg/mL and the MIC (K. pneumoniae; BAA1898, alone, KPN BAA-1898, beta-lactamases TEM-1, SHV-11, SHV-12 KPC-2) was 256 µg/mL. The MIC (K. pneumoniae; alone, KPN 6299, beta-lactamases TEM-1, SHV-11 OXA-163) was 256 µg/mL, the MIC (K. pneumoniae; alone, KPN 110376, beta-lactamases TEM-1, SHV-1, CTX-M-15 OXA-1 OXA-48) was 128 µg/mL and the MIC (K. pneumoniae; alone, KPN 131119, beta-lactamases TEM-1, SHV-11, CTX-M-15 OXA-1 OXA-48) was over 128 µg/mL. It also gave an MIC (K. pneumoniae; alone, KPN 160143, beta-lactamases TEM-1, SHV-1, CTX-M-15 KPC-2 OXA-1) of 128 µg/mL, an MIC (K. pneumoniae; alone, KPN 190128, beta-lactamases TEM-1, SHV-32, CTX-M-15 OXA-1) of over 128 µg/mL and an MIC (K. pneumoniae; alone, KPN 190270, beta-lactamases TEM-1, SHV-76, CTX-M-15 OXA-1) of over 128 µg/mL. For the same compound, the MIC (K. pneumoniae; alone, KPN 190425, beta-lactamases TEM-1, SHV-1, CTX-M-15 OXA-1) was over 128 µg/mL, the MIC (K. pneumoniae; alone, KPN 190551, beta-lactamases TEM-1, SHV-1, CTX-M-15 OXA-1, read-out: MIC) was 64 µg/mL and the MIC (K. pneumoniae; alone, KPN 200047, beta-lactamases TEM-1, SHV-32, CTX-M-15 OXA-1) was 128 µg/mL. For the same compound, the MIC (K. pneumoniae; alone, KPN 200327, beta-lactamases TEM-1, SHV-1, CTX-M-15 OXA-1, read-out: MIC) was 32 µg/mL, the MIC (K. pneumoniae; alone, KPN 260251, beta-lactamases TEM-1, SHV-11, SHV-12, CTX-M-15 KPC-2) was over 128 µg/mL and the MIC (K. pneumoniae; alone, KPN 260252, beta-lactamases TEM-1, SHV-11 KPC-3) was over 128 µg/mL. For the same compound, the MIC (K. pneumoniae; alone, KPN 260376, beta-lactamases SHV-1, SHV-49 OXA-1) was 128 µg/mL, the MIC (K. pneumoniae; alone, KPN 270077, beta-lactamases TEM-1, SHV-1, CTX-M-15) was 128 µg/mL and the MIC (K. pneumoniae; alone, KPN 700603, beta-lactamases SHV-18 OXA-2, read-out: MIC) was 64 µg/mL. For the same compound, the MIC (K. pneumoniae; alone, KPN 6122012, beta-lactamases SHV-1 NDM-1) was over 128 µg/mL, the MIC (K. pneumoniae; alone, KPN ARA, beta-lactamases TEM-1, SHV-11, CTX-M-15 OXA-1 OXA-48) was over 128 µg/mL and the MIC (K. pneumoniae; alone, KPN LIB, beta-lactamases SHV-11 OXA-48, read-out: MIC) was 0.25 µg/mL. It also gave an MIC (K. pneumoniae; alone, KPN UFR22_O, beta-lactamases TEM-1, SHV-1 OXA-48, read-out: MIC) of 2 µg/mL, an MIC (K. pneumoniae; alone, KPN UFR24, beta-lactamases TEM-1, SHV-2, SHV-11 OXA-1 OXA-48 OXA-47) of over 128 µg/mL and an MIC (K. pneumoniae; alone, KPN UFR25, beta-lactamases TEM-1, SHV-11, CTX-M-15 OXA-162) of 128 µg/mL. For the same compound, the MIC (K. pneumoniae; alone, KPN UFR27, beta-lactamases TEM-1, SHV-28, CTX-M-15 OXA-204) was over 128 µg/mL, the MIC (K. pneumoniae; alone, KPN UFR28, beta-lactamases TEM-1, SHV-1, CTX-M-15 OXA-1 OXA-232) was 128 µg/mL and the MIC (K. pneumoniae; alone, KPN UFR42, beta-lactamases SHV-2, CTX-M-15 OXA-1 OXA-181 NDM-1) was over 128 µg/mL. The MIC (K. pneumoniae; alone, KPN UFR43, beta-lactamases SHV-11, CTX-M-15 CMY-2 OXA-1 NDM-1) was over 128 µg/mL, the MIC (K. pneumoniae; alone, KPN UFR53, beta-lactamases TEM-1 IMP-1) was over 128 µg/mL and the MIC (K. pneumoniae; alone, KPN UFR65, beta-lactamases TEM-1, SHV-11 KPC-2) was 128 µg/mL. It also gave an MIC (K. pneumoniae; alone, KPN UFR66, beta-lactamases TEM-1, SHV-11, CTX-M-15 KPC-2) of over 128 µg/mL, an MIC (K. pneumoniae; alone, KPN UFR68, beta-lactamases TEM-1, SHV-11, CTX-M-15 KPC-3) of over 128 µg/mL and an MIC (K. pneumoniae; alone, KPN UFR77, beta-lactamases CMY-2, read-out: MIC) of 64 µg/mL. The MIC (K. pneumoniae; alone, KPN UFR79, beta-lactamases DHA-1 OXA-1, read-out: MIC) was 32 µg/mL, the MIC (K. pneumoniae; alone, KPN UFR80, beta-lactamases SHV-11 DHA-1 OXA-1, read-out: MIC) was 0.5 µg/mL and the MIC (K. pneumoniae; alone, KPN UFR81, beta-lactamases TEM-1, SHV-1 DHA-1 OXA-48) was 128 µg/mL. It also gave an MIC (M. morganii) of 16 µg/mL, an MIC (P. aeruginosa) of 128 µg/mL and an MIC (P. aeruginosa; CIP107051) of 256 µg/mL. For the same compound, the MIC (P. mirabilis) was 4 µg/mL and the MIC (S. marcescens) was 16 µg/mL.
